Data reported in patent publication US20230241102A1, “FORMULATIONS OF CALCIUM AND PHOSPHATE FOR ORAL INFLAMMATION” (Bausch Health Companies Inc., priority 2014, published 2023).

Experiments:
[1] = pH of the resulting liquid (pH meter Mettler Toledo Seven Multi, USP<791>); settings: for pH trial 1 / pH trial 2: Table 2, 30 ml tap water, room temperature
Experimental: (§1) To evaluate dissolution, the components were weighed and put in centrifuge tubes containing 30 ml of tap water at room temperature. The tubes were gently stirred by hand (up and down movements) for 30 seconds to 1 minute. The dispersions were then assessed visually for turbidity and presence of particles in suspension or precipitate. pH was also assessed using pH meter Mettler Toledo Seven Multi and following USP<791>method.
(§2) Visual solubility tests were done in duplicate using 3 different calcium sources. The quantity of material was adjusted in order to maintain a consistent calcium content from each different salt.
The following trials were performed in order to assess visual solubility and pH levels of various formulations.

[2] = Visual solubility test: components mixed in 30 ml tap water, assessed visually for turbidity, particles in suspension or precipitate; settings: Table 2, calcium sources at consistent calcium content, room temperature, same observation for both trials
Experimental: Table 1 provides a description of the visual solubility tests performed using various components (including a commercial sample), with the quantities of each product weighed, and visual observations after the components were mixed in water.
as §1, §2
The following trials were performed in order to assess visual solubility and pH levels of various formulations. […] All lots were prepared by dry blending by hand of ingredients using spatula.

pH ([1]; Tables 3-5, calcium salt with dibasic and monobasic sodium phosphate in 30 ml water) | Compound | pH trial 1 [1] | pH trial 2 [1] | Observations [2]
 | O.O.[Ca+2].[Cl-].[Cl-] [Calcium Chloride dihydrate] | 7.65 | 7.67 | 
 | CC(O)C(=O)[O-].O=C([O-])[C@H](O)[C@@H](O)[C@H](O)[C@H](O)CO.[Ca+2] [Calcium lactate gluconate] | 7.73 | 7.74 | sufficiently soluble
higher pH | Calcium glycerophosphate | 8.08 | 8.07 | 
